What all share (assay): biochemical
What all share (parameters): DiscoveRx KINOMEscan active site-directed competition binding; percent of control kinase bound to immobilised ligand

The target of assay [1] is HIPK1 (Homo sapiens, UniProt Q86Z02).
In assay [2] the target is T1, IKK-beta (Homo sapiens, UniProt O14920).
T1 construct: gene IKBKB
T1 sequence (O14920 1-756): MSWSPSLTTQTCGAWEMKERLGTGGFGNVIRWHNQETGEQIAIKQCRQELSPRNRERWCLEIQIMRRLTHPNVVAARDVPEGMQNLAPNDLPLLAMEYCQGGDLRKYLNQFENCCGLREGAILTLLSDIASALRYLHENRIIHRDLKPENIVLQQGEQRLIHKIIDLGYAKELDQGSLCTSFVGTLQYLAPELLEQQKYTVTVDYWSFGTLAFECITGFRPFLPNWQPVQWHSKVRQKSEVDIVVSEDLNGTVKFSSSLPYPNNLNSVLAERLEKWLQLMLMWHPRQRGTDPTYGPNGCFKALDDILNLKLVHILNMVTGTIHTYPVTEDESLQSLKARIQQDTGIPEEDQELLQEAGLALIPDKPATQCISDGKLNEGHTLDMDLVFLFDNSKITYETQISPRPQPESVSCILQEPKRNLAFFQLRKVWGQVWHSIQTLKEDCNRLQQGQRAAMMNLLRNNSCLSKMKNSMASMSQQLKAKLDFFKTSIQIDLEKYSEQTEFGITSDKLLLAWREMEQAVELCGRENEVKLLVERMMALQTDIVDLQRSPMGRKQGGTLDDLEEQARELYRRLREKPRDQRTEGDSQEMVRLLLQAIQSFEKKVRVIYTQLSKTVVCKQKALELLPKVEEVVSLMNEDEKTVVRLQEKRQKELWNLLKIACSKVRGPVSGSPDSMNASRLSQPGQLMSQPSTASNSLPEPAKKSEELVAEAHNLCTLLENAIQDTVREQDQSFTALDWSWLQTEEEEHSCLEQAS

Assay [3] addresses KIT(D816V) (Homo sapiens, UniProt P10721, D816V).
Assay [4] concerns the target CAMK2D (Homo sapiens, UniProt Q13557).
Assay [5] addresses T2, ANKK1 (Homo sapiens, UniProt Q8NFD2).
T2 sequence (Q8NFD2 1-765): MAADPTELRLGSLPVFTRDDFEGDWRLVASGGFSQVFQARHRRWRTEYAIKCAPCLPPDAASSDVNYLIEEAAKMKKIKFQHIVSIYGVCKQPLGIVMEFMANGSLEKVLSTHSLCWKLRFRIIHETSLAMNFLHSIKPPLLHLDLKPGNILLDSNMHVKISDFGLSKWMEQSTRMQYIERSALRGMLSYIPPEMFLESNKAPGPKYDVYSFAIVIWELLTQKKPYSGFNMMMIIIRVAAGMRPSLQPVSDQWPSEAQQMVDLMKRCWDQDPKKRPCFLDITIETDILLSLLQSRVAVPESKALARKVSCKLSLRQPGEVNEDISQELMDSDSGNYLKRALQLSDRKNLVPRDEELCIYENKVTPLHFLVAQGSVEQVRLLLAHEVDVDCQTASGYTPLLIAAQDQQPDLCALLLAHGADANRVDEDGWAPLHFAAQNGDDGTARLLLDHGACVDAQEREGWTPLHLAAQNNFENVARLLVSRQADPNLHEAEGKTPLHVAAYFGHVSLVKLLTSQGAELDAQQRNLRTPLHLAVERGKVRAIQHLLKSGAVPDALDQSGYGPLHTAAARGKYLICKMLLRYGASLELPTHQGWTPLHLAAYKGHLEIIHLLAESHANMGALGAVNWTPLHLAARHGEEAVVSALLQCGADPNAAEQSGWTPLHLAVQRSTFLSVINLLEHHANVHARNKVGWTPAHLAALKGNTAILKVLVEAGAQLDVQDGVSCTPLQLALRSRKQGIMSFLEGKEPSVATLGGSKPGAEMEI

The target in assay [6] is RIPK2 (Homo sapiens, UniProt O43353).
Chain of RIPK2 (O43353 whole entry): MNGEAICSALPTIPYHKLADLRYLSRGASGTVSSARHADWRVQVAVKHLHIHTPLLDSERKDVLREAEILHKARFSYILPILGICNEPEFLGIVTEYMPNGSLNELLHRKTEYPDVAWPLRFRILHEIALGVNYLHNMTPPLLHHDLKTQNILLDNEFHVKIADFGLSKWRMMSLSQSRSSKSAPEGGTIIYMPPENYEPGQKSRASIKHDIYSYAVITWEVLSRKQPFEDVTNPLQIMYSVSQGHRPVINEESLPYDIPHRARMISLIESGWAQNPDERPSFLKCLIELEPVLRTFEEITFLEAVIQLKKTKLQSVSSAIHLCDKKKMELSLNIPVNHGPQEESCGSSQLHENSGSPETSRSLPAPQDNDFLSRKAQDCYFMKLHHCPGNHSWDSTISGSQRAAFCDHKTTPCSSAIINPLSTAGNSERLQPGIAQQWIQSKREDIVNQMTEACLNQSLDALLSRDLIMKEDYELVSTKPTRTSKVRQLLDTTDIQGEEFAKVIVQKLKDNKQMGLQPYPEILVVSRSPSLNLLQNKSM
Assay [7] addresses T3, AXL (Homo sapiens, UniProt P30530).
T3 sequence (P30530 1-894): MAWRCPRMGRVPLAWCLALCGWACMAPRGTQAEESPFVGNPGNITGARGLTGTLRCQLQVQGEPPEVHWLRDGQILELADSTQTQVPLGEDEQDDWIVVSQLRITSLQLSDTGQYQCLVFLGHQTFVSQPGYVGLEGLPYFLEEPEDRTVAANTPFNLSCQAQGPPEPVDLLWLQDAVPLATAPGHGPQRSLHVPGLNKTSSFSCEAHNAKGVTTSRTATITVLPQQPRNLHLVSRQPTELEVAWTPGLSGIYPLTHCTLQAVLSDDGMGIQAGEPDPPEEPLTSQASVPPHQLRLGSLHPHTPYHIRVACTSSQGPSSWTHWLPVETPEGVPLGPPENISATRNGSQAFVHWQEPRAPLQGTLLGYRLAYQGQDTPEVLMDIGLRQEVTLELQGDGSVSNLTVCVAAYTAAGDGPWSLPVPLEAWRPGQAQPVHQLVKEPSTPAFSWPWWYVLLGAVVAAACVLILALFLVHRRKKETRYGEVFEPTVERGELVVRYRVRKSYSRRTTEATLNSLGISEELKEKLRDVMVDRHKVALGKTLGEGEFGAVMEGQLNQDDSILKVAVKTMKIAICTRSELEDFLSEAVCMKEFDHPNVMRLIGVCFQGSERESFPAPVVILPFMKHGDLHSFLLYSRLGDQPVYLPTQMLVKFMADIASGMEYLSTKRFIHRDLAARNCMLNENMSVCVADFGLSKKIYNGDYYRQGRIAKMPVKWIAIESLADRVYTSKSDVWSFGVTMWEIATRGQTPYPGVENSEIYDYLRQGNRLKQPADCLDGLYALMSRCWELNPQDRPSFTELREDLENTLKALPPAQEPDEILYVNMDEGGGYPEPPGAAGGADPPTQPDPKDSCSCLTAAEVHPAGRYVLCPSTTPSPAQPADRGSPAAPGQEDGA

Setting [8] is: read-out: Rucaparib / %Ctrl @ 10000nM, binding competition, % of control.
Setting [9] is: read-out: Talazoparib (BMN 673) / %Ctrl @ 10000nM.
[10] abbreviates: read-out: Niraparib (MK-4827) / %Ctrl @ 10000nM.
Setting [11] is: read-out: Olaparib / %Ctrl @ 10000nM.

Like-named read-outs stand apart in the source and are kept apart here.

Chain of CAMK2D (Q13557 whole entry): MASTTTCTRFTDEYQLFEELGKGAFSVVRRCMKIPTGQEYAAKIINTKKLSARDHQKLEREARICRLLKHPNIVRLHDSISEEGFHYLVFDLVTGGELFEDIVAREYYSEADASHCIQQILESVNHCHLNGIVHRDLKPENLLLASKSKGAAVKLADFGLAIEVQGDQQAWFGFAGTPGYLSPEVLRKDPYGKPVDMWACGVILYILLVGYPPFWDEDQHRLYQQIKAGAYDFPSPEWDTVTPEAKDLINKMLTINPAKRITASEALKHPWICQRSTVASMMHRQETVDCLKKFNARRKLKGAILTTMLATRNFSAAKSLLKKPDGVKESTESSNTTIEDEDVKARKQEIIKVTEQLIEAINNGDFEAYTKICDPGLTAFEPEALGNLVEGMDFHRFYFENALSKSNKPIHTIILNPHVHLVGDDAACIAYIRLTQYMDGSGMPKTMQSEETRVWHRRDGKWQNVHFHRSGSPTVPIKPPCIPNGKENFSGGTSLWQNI
Chain of HIPK1 (Q86Z02 whole entry): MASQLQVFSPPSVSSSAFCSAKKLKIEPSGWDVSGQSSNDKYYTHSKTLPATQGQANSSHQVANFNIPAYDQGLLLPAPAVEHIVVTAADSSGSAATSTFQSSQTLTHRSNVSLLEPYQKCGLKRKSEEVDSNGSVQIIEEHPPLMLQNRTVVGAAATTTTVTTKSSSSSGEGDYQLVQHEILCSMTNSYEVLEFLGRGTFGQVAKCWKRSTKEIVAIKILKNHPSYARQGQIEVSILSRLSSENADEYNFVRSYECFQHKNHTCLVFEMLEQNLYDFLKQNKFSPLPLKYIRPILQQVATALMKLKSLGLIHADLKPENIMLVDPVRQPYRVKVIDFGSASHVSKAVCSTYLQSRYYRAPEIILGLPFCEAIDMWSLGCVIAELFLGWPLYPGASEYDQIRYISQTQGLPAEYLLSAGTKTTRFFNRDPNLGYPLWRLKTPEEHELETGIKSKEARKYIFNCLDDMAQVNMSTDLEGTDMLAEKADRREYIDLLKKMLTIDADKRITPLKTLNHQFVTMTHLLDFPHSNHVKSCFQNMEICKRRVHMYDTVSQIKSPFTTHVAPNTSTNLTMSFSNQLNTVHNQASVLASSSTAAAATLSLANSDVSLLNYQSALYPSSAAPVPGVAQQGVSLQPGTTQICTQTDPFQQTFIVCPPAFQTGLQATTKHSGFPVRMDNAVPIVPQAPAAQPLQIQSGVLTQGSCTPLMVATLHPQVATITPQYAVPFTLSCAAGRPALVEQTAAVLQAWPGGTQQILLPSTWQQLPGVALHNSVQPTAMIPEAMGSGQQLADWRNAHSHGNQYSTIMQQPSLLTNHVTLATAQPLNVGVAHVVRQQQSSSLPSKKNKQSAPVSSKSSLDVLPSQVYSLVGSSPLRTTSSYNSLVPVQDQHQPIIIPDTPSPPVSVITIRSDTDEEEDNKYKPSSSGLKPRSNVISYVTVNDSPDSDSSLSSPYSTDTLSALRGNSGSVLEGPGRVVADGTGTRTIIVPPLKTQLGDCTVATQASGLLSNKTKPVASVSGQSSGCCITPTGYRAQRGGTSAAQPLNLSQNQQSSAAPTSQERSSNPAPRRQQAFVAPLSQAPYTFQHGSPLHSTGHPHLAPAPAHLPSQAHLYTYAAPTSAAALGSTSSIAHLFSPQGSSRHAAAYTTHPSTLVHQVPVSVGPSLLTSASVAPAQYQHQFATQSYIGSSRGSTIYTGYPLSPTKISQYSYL
Chain of KIT(D816V) (P10721 whole entry D816V): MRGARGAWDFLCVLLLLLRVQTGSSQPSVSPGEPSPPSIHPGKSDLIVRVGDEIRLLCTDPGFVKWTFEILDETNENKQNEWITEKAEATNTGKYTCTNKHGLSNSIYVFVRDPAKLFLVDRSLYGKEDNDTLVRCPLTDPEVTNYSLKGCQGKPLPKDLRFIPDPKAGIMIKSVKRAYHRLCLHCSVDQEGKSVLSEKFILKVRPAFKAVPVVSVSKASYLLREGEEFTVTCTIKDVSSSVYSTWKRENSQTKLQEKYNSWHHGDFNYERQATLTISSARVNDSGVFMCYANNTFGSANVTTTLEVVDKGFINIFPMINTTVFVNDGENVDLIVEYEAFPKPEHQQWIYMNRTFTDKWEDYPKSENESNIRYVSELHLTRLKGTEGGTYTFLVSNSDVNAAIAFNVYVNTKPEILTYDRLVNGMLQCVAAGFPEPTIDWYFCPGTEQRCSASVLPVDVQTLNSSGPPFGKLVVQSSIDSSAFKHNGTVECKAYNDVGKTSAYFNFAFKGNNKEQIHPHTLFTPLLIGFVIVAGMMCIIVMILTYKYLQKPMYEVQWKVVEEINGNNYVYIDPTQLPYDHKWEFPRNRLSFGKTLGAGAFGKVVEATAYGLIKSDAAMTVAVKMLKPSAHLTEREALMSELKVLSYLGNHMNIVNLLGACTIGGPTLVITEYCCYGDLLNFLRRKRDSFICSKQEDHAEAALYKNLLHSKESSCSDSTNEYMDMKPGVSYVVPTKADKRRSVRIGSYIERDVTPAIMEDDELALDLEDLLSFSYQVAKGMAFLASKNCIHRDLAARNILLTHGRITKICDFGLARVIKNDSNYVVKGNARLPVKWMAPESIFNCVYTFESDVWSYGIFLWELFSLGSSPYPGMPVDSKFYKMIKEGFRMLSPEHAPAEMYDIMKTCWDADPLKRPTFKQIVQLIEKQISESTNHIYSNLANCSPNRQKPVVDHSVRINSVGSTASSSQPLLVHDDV

With `CNCc1ccc(-c2[nH]c3cc(F)cc4c3c2CCNC4=O)cc1` [Rucaparib], the percent of control binding at 10 µM in assay [1] (setting [8]) was 5.4%; in assay [2] (setting [8]), 35%; in assay [3] (setting [8]), 96%; in assay [4] (setting [8]), 89%; in assay [5] (setting [8]), 71%; in assay [6] (setting [8]) it was 88%. Also, the percent of control binding at 10 µM in assay [7] (setting [8]) was determined as 82%.

`Cn1ncnc1[C@H]1c2n[nH]c(=O)c3cc(F)cc(c23)N[C@@H]1c1ccc(F)cc1` [Talazoparib]: the percent of control binding at 10 µM in assay [1] (setting [9]) was found to be 100%; in assay [2] (setting [9]) it was 95%; in assay [3] (setting [9]), 94%; in assay [4] (setting [9]) it was 99%; in assay [5] (setting [9]), 100%; in assay [6] (setting [9]) it was 100%. Moreover, the percent of control binding at 10 µM in assay [7] (setting [9]) came to 100%.

Take `NC(=O)c1cccc2cn(-c3ccc([C@@H]4CCCNC4)cc3)nc12` [Niraparib]: the percent of control binding at 10 µM is 0.95% in assay [1] (setting [10]); 100% in assay [2] (setting [10]); 89% in assay [3] (setting [10]); 99% in assay [4] (setting [10]); 100% in assay [5] (setting [10]); 78% in assay [6] (setting [10]). Further, the percent of control binding at 10 µM in assay [7] (setting [10]) came out at 59%.

As for `O=C(c1cc(Cc2n[nH]c(=O)c3ccccc23)ccc1F)N1CCN(C(=O)C2CC2)CC1` [Olaparib], the percent of control binding at 10 µM in assay [1] (setting [11]) was determined as 87%; in assay [2] (setting [11]) it was 72%; in assay [3] (setting [11]) it was 100%; in assay [4] (setting [11]), 99%; in assay [5] (setting [11]), 90%; in assay [6] (setting [11]), 93%. In addition, the percent of control binding at 10 µM in assay [7] (setting [11]) came out at 100%.
